Laboratory results taken from the supplement of paper PMC10307832.

Columns and labels:
Assay in all cases: relative viability (nuclei count vs DMSO), 5 days (fraction); higher = more cells survive
[1] = compound: C1=CC(=CC=C1C2=CC(=C(S2)NC(=O)N)C(=O)N)F [TPCA-1] + Nc1ncn([C@H]2C[C@H](O)[C@@H](CO)O2)c(=O)n1 [Decitabine] (partner 2 µM)
Summary of the method: (§1)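 Lung cancer cell lines in 1536-well plates were dosed by pin tool the day after seeding, either with one drug alone or with a fixed anchor-drug dose plus five library-drug doses (not always all listed) in √10 steps. After 5 days, cells were fixed and their nuclei stained in one step (final 0.05% Triton X-100, 1% formaldehyde, 1 ug/ml Hoechst), then counted on 4× images. Relative viability is the nuclei count in treated wells divided by that in vehicle wells. Values are medians of duplicate plates.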

[2] = compound: C[C@]12O[C@H](C[C@]1(O)CO)n1c3ccccc3c3c4c(c5c6ccccc6n2c5c31)CNC4=O [Lestaurtinib] + N=C(N)NC(=N)NCCc1ccccc1 [Phenformin] (partner 250 µM)
Summary of the method: as §1

[3] = compound: C1/C(=C\C2=CC=CS2)/C(=O)/C(=C/C3=CC=CS3)/C1 + Cc1nc(NC(=O)N2CCC[C@H]2C(N)=O)sc1-c1ccnc(C(C)(C)C(F)(F)F)c1 [Alpelisib] (partner 2 µM)
Summary of the method: as §1

[4] = compound: C[C@]12O[C@H](C[C@]1(O)CO)n1c3ccccc3c3c4c(c5c6ccccc6n2c5c31)CNC4=O [Lestaurtinib] + CS(=O)(=O)N1CCN(Cc2cc3nc(-c4cccc5[nH]ncc45)nc(N4CCOCC4)c3s2)CC1 [Pictilisib] (partner 1 µM)
Summary of the method: as §1

Cell Line | relative viability ([1]; first compound 0.4 µM) | relative viability ([1]; first compound 1.265 µM) | relative viability ([1]; first compound 4 µM) | relative viability ([2]; first compound 0.005 µM) | relative viability ([2]; first compound 0.01581 µM) | relative viability ([2]; first compound 0.05 µM) | relative viability ([2]; first compound 0.1581 µM) | relative viability ([2]; first compound 0.5 µM) | relative viability ([3]; first compound 0.2 µM) | relative viability ([3]; first compound 0.6325 µM) | relative viability ([3]; first compound 2 µM) | relative viability ([3]; first compound 6.325 µM) | relative viability ([3]; first compound 20 µM) | relative viability ([1]; first compound 0.04 µM) | relative viability ([1]; first compound 0.1265 µM) | relative viability ([4]; first compound 0.005 µM) | relative viability ([4]; first compound 0.01581 µM) | relative viability ([4]; first compound 0.05 µM) | relative viability ([4]; first compound 0.1581 µM) | relative viability ([4]; first compound 0.5 µM)
SW 900 | 0.407 | 0.421 | 0.391 | 0.69 | 0.715 | 0.63 | 0.803 | 0.4 | – | – | – | – | – | – | – | – | – | – | – | –
NCI-H1944 | 0.477 | 0.475 | 0.383 | 0.194 | 0.209 | 0.164 | 0.133 | 0.132 | 0.864 | 0.8 | 0.855 | 0.713 | 0.818 | 0.526 | 0.446 | 0.352 | 0.313 | 0.313 | 0.305 | 0.248
NCI-H727 | 0.943 | 0.788 | 0.576 | 0.475 | 0.655 | 0.648 | 0.515 | 0.298 | 0.578 | 0.532 | 0.616 | 0.507 | 0.567 | 0.946 | 0.787 | 0.396 | 0.566 | 0.278 | 0.409 | 0.229
NCI-H1650 | 0.433 | 0.382 | 0.397 | 0.419 | 0.511 | 0.424 | 0.373 | 0.151 | – | – | – | – | – | 0.424 | 0.42 | 0.594 | 0.662 | 0.566 | 0.463 | 0.153
HCC-827 | 0.317 | 0.31 | 0.31 | 0.359 | 0.44 | 0.36 | 0.316 | 0.265 | 0.903 | 0.924 | 1.02 | 0.935 | 0.98 | 0.364 | 0.326 | 1.13 | 0.8 | 0.896 | 0.833 | 0.388
HCC-366 | 0.361 | 0.271 | 0.322 | 0.618 | 0.642 | 0.656 | 0.603 | 0.48 | 0.502 | 0.393 | 0.378 | 0.345 | 0.421 | – | 0.285 | 0.159 | 0.178 | 0.192 | 0.101 | 0.0482
HARA | 0.844 | 0.462 | 0.492 | 0.507 | 0.477 | 0.369 | 0.358 | 0.251 | 0.802 | 0.78 | 0.885 | 0.598 | 0.861 | 0.576 | 0.54 | 0.356 | 0.451 | 0.334 | 0.187 | 0.179
NCI-H322M | 0.74 | 0.682 | 0.486 | 0.689 | 0.694 | 0.478 | 0.517 | 0.393 | 0.739 | 0.833 | 0.832 | 0.666 | 0.708 | 0.729 | 0.638 | 0.493 | 0.5 | 0.445 | 0.443 | 0.401
LXF-289 | 0.395 | 0.403 | 0.34 | 0.515 | 0.498 | 0.42 | 0.302 | 0.213 | 1.02 | 1.08 | 1.05 | 0.974 | 1.04 | 0.384 | 0.345 | 0.715 | 0.756 | 0.475 | 0.523 | 0.247
